Patent US10420787B2, “Crystal-water-free calcium dibutyryladenosine cyclophosphate crystal form and preparation method and application thereof” (SPH NO.1 BIOCHEMICAL & PHARMACEUTICAL CO., LTD., priority 2014, dated 2019)
Where “and” joins values, the source holds several entries; their conditions need not be identical. Equal entries are not always repeated.

What was measured:
[1] = Hygrothermal acceleration stability test (30° C., relative humidity 75±5%, 6 months); type: physicochemical; details: RH 75±5%; for Related substances (%): HPLC
Description: (§1) Chromatographic conditions include:
(§2) HPLC purity is detected according to the method in the following embodiments.

[2] = Long-term observation stability test (16° C., relative humidity 60±5%, 12 months); type: physicochemical; details: RH 60±5%; for Related substances (%): HPLC
Description: as §1, §2

| Molecule | Related substances (%) ([1]; 0 months) | Content (%) ([1]; 1 month) | Related substances (%) ([1]; 1 month) | Content (%) ([1]; 2 months) | Related substances (%) ([1]; 2 months) | Content (%) ([1]; 3 months) | Related substances (%) ([1]; 3 months) | Content (%) ([1]; 6 months) | Related substances (%) ([1]; 6 months) | Content (%) ([2]; 0 months) | Related substances (%) ([2]; 0 months) | Content (%) ([2]; 3 months) | Related substances (%) ([2]; 3 months) | Related substances (%) ([2]; 6 months) | Content (%) ([2]; 9 months) | Related substances (%) ([2]; 9 months) | Content (%) ([2]; 12 months) | Related substances (%) ([2]; 12 months) | Content (%) ([1]; 0 months) | Content (%) ([2]; 6 months) |
| --- | --- | --- | --- | --- | --- | --- | --- | --- | --- | --- | --- | --- | --- | --- | --- | --- | --- | --- | --- | --- |
| CCCC(=O)Nc1ncnc2c1ncn2[C@@H]1O[C@@H]2COP(=O)([O-])O[C@H]2[C@H]1OC(=O)CCC.CCCC(=O)Nc1ncnc2c1ncn2[C@@H]1O[C@@H]2COP(=O)([O-])O[C@H]2[C@H]1OC(=O)CCC.[Ca+2] [Anhydrouscalcium dibutyryladenosine cyclophosphate solids] [anhydrous calcium dibutyryladenosine cyclophosphate, reference compound] | 4.3% | 94.8% | 4.9% | 94.2% | 5.5% | 93.5% | 6.0% | 93.0% | 6.7% | 954% | 4.3% | 95.0% | 4.6% | 4.8% | 94.4% | 5.2% | 94.1% | 5.4% |  |  |
| calcium dibutyryladenosine cyclophosphate 2.3 hydrates [DBC-Ca•2.3H2O crystals, reference compound] | 5.3% | 90.1% | 5.5% | 89.8% | 5.8% | 89.7% | 5.9% | 89.3% | 6.1% | 90.2% | 5.3% | 90.0% | 5.3% | 5.5% | 89.7% | 5.6% | 89.6% | 5.9% | 90.2% | 89.9% |
| CCCC(=O)Nc1ncnc2c1ncn2[C@@H]1O[C@@H]2COP(=O)([O-])O[C@H]2[C@H]1OC(=O)CCC.CCCC(=O)Nc1ncnc2c1ncn2[C@@H]1O[C@@H]2COP(=O)([O-])O[C@H]2[C@H]1OC(=O)CCC.[Ca+2] [calcium dibutyryladenosine cyclophosphate] | 3.8% and 4.1% and 4.0% | 95.3% and 95.8% and 95.0% | 3.9% and 4.0% and 4.1% | 95.1% and 95.4% | 4.0% and 4.1% | 94.9% and 95.0% and 94.7% | 4.2% and 4.3% | 94.5% and 94.7% and 94.3% | 4.5% and 4.7% and 4.6% | 95.8% and 96.2% and 95.2% | 3.8% and 4.1% and 4.0% | 95.5% and 96.1% and 95.3% | 3.7% and 4.2% and 4.1% | 3.8% and 4.1% and 4.3% | 95.5% and 95.9% and 95.0% | 3.7% and 4.0% and 4.2% | 95.3% and 95.8% and 94.9% | 4.0% and 4.3% and 4.4% | 95.8% and 96.2% and 95.2% | 95.6% and 96.0% and 95.1% |
